Reference: US20250388553A1 (Incyte Corporation, priority 2018, published 2025)
Counter-ions that a name gives are not always drawn. Each block holds one molecule with its values, some of them ahead of it.

Legend:
[1] = biological target: PI3Kδ (p1106/p85a) Recombinant Human Protein (Homo sapiens (Human), UniProt O00329); test: PI3Kδ scintillation proximity assay; format: biochemical; conditions: scintillation proximity assay, recombinant human PI3Kδ
Text: Example C. PI3Kδ Scintillation Proximity Assay
(§1) Materials: [γ-^33P]ATP (10 mCi/mL) and Wheat Germ Agglutinin (WGA) YSi SPA Scintillation Beads was purchased from Perkin Elmer (Waltham, MA). Lipid kinase substrate, D-myo-Phosphatidylinositol 4,5-bisphosphate (PtdIns(4,5)P2)D (+)-sn-1,2-di-O-octanoylglyceryl, 3-O-phospho linked (PIP2), CAS 204858-53-7, was purchased from Echelon Biosciences (Salt Lake City, UT). PI3Kδ (p1106/p85a) Recombinant Human Protein was purchased from Eurofins (St Charles, MO). ATP, MgCl2, DTT, EDTA, MOPS and CHAPS were purchased from Sigma Aldrich (St. Louis, MO).
(§2) The kinase reaction was conducted in polystyrene 384-well Greiner Bio-one white plate from Thermo Fisher Scientific in a final volume of 25 μL. Inhibitors were first diluted serially in DMSO and added to the plate wells before the addition of other reaction components. The final concentration of DMSO in the assay was 2%. The PI3Kδ assay was carried out at room temperature in 20 mM MOPS, pH 6.7, 10 mM MgCl2, 5 mM DTT and CHAPS 0.03%. Reactions were initiated by the addition of ATP, the final reaction mixture consisted of 20 µM […], 0.5 μCi [γ-^33P]ATP, 3.4 nM PI3Kδ. Reactions were incubated for 120 min and terminated by the addition of 40 μL SPA beads suspended in quench buffer: 163 mM potassium phosphate pH 7.8, 20% glycerol, 25 mM EDTA. The final concentration of SPA beads is 1.0 mg/mL. After the plate sealing, plates were shaken overnight at room temperature and centrifuged at 1500 rpm for 10 min, the radioactivity of the product was determined by scintillation counting on Topcount (PerkinElmer). IC50 determination was performed by fitting the curve of percent of the solvent control activity versus the log of the inhibitor concentration using the GraphPad Prism 6.0 software.
(§3) The compounds of the Examples were tested in the assays described in Examples A, B and C and found to have the IC50s are shown in Tables A1, A2, A3 and A4.

[2] = biological target: PI3Kγ (p110γ) Recombinant Human Protein (Homo sapiens (Human), UniProt P48736); test: PI3K-γ scintillation proximity assay; format: biochemical; conditions: scintillation proximity assay, recombinant human p110γ
Chain of PI3Kγ (p110γ) Recombinant Human Protein (P48736 whole entry): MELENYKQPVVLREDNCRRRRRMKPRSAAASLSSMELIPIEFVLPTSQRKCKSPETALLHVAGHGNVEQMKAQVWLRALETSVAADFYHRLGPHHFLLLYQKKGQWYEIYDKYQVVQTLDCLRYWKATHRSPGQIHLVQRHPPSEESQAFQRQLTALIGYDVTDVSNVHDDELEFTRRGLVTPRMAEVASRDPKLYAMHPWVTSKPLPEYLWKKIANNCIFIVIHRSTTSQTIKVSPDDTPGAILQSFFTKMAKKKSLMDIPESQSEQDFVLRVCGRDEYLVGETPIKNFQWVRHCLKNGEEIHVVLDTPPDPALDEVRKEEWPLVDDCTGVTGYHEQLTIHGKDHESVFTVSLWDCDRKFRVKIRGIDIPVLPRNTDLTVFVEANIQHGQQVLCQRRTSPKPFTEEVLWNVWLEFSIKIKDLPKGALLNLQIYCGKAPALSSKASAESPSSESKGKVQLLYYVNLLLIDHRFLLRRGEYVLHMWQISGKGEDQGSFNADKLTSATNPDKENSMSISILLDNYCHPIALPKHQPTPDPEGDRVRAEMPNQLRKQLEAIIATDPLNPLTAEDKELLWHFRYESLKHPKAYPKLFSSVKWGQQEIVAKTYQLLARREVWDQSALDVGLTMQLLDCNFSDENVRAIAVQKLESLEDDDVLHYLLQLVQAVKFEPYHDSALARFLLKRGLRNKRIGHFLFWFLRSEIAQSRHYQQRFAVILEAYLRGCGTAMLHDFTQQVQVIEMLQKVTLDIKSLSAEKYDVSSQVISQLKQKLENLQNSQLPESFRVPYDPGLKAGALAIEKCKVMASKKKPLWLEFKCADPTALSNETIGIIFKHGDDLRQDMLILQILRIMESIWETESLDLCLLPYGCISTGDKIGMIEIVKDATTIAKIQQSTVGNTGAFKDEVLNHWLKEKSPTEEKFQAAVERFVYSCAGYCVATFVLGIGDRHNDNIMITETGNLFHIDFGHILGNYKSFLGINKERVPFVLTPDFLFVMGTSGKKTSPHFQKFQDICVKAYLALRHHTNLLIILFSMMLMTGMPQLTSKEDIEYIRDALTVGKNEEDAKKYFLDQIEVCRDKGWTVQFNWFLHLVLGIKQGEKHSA
Text: Example B. PI3K-γ Scintillation Proximity Assay
as §1, with “PI3Kγ (p110γ)” for “PI3Kδ (p1106/p85a)”, “Life technology (Grand Island, NY).” for “Eurofins (St Charles, MO).”
as §2, with “[…].” for “μL.”, “PI3Kγ” for “PI3Kδ”, “13” for “3.4”, “PI3Kγ.” for “PI3Kδ.”, “(Perkin-Elmer).” for “(PerkinElmer).”
as §3

Chain of PI3Kδ (p1106/p85a) Recombinant Human Protein (O00329 whole entry): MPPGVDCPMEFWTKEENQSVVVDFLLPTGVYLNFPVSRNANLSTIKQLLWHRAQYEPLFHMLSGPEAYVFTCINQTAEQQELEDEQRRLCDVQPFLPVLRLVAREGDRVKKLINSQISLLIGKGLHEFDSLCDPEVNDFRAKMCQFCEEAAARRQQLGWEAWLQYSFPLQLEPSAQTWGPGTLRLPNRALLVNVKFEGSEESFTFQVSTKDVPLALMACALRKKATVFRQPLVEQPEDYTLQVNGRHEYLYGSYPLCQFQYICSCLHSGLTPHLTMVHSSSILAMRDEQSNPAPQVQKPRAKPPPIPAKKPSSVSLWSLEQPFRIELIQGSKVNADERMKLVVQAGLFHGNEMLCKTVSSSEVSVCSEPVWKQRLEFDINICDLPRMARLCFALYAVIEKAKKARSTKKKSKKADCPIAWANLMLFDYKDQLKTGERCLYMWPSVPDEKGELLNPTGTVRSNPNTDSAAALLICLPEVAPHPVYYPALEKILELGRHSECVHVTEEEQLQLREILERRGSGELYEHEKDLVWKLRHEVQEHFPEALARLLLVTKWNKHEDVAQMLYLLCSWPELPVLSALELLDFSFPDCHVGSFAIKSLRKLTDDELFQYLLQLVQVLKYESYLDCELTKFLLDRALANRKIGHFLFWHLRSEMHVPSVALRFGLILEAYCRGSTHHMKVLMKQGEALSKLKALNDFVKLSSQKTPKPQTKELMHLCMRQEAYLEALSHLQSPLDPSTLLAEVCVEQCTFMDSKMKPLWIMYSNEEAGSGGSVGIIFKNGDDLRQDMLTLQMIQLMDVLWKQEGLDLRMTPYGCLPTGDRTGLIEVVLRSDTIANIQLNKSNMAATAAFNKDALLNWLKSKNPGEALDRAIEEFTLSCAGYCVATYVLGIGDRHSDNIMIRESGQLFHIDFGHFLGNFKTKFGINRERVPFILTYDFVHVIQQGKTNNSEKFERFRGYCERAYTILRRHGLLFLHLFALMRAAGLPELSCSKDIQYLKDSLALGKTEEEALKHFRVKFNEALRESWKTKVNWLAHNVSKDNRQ
Chain of PI3Kδ (p1106/p85a) Recombinant Human Protein (P27986 whole entry partner): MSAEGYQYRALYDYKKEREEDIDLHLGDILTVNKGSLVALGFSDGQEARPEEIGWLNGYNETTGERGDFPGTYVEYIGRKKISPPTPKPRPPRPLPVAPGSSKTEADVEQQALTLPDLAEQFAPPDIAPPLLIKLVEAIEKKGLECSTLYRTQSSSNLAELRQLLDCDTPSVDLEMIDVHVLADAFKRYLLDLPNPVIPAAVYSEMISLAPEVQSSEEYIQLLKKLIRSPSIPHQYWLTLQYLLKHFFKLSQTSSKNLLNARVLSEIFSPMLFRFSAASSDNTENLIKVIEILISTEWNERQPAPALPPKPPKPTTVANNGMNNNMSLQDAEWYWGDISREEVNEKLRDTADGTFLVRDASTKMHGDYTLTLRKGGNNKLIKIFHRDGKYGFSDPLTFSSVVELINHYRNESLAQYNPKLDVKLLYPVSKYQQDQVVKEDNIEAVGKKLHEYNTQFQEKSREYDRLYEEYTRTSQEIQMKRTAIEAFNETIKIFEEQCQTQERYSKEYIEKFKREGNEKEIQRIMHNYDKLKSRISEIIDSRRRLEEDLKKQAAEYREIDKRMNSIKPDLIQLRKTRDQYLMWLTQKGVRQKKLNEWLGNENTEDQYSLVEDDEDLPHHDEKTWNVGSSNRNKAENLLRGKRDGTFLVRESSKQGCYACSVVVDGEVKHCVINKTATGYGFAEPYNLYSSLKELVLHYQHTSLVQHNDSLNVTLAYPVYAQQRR

- IC50 ([1]; Table A2): 100 to 500 nM
- IC50 ([2]; Table A2): < 100 nM
Compound: C/C=C\c1nc(-c2cc(C(O)(C(N)=O)C(F)(F)F)ccc2C)cnc1N (centres unmarked) [Example 44, (Z)-2-(3-(5-amino-6-(prop-1-en-1-yl)pyrazin-2-yl)-4-methylphenyl)-3,3,3-trifluoro-2-hydroxypropanamide]

- IC50 ([1]; Table A2): 100 to 500 nM
- IC50 ([2]; Table A2): < 100 nM
Compound: Cc1ccc(C(O)(C(N)=O)C(F)(F)F)cc1-c1cnc(N)c(C(F)(F)F)n1 (centres unmarked) [Example 46, 2-(3-(5-Amino-6-(trifluoromethyl)pyrazin-2-yl)-4-methylphenyl)-3,3,3-trifluoro-2-hydroxypropanamide trifluoroacetate]

- IC50 ([1]; Table A3): < 100 nM
- IC50 ([2]; Table A3): < 100 nM
Compound: CC(=O)NCC(O)(c1ccc(C)c(-c2cnc(N)c(-c3cn[nH]c3)n2)c1)C(F)(F)F (centres unmarked) [Example 105, N-(2-(3-(5-amino-6-(1H-pyrazol-4-yl)pyrazin-2-yl)-4-methylphenyl)-3,3,3-trifluoro-2-hydroxypropyl)acetamide trifluoroacetate]

- IC50 ([1]; Table A3): < 100 nM
- IC50 ([2]; Table A3): < 100 nM
Compound: Cc1ncc(-c2nc(-c3cc(C(O)(C(N)=O)C(F)F)ccc3C)cnc2N)o1 (centres unmarked) [Example 100, 2-(3-(5-amino-6-(2-methyloxazol-5-yl)pyrazin-2-yl)-4-methylphenyl)-3,3-difluoro-2-hydroxypropanamide]

- IC50 ([1]; Table A4): < 100 nM
- IC50 ([2]; Table A4): < 100 nM
Compound: Cc1ccc(C(O)(C(N)=O)C(F)(F)F)cc1-c1cnc(N)c(N2CCN(c3ccccc3C#N)CC2)n1 (centres unmarked) [Example 122, 2-(3-(5-amino-6-(4-(2-cyanophcnyl)piperazin-1-yl)pyrazin-2-yl)-4-methylphenyl)-3,3,3-trifluoro-2-hydroxypropanamide trifluoroacetate]

- IC50 ([1]; Table A1): < 100 nM
- IC50 ([2]; Table A1): < 100 nM
Compound: Cc1ccc(C(O)(C(N)=O)C(F)(F)F)cc1-c1cnc(N)c(C(=O)NC23CCC(C#N)(C2)C3)n1 (centres unmarked) [Example 24, 3-amino-6-(5-(3-amino-1,1,1-trifluoro-2-hydroxy-3-oxopropan-2-yl)-2-methylphenyl)-N-(4-cyanobicyclo[2.1.1]hexan-1-yl)pyrazine-2-carboxamide trifluoroacetate]

- IC50 ([1]; Table A1): < 100 nM
- IC50 ([2]; Table A1): < 100 nM
Compound: Cc1ccc(C(O)(C(N)=O)C(F)(F)F)cc1-c1cnc(N)c(C(=O)N[C@H]2CCOC2)n1 (stereo partly drawn) [Example 11, 3-amino-6-(5-(3-amino-1,1,1-trifluoro-2-hydroxy-3-oxopropan-2-yl)-2-methylphenyl)-N-((S)-tetrahydrofuran-3-yl)pyrazine-2-carboxamide trifluoroacetate]

- IC50 ([1]; Table A1): < 100 nM
- IC50 ([2]; Table A1): < 100 nM
Compound: Cc1ccc(C(O)(C(N)=O)C(F)F)cc1-c1cnc(N)c(C(=O)NC(C)(C)CO)n1 (centres unmarked) [Example 35, 3-amino-6-(5-(1-amino-3,3-difluoro-2-hydroxy-1-oxopropan-2-yl)-2-methylphenyl)-N-(1-hydroxy-2-methylpropan-2-yl)pyrazine-2-carboxamide]

- IC50 ([1]; Table A2): < 100 nM
- IC50 ([2]; Table A2): < 100 nM
Compound: Cc1ccc(C(O)(C(N)=O)C(F)(F)F)cc1-c1cnc(N)c(C#Cc2ccc(CC#N)cc2)n1 (centres unmarked) [Example 59, 2-(3-(5-amino-6-((4-(cyanomethyl)phenyl)ethynyl)pyrazin-2-yl)-4-methylphenyl)-3,3,3-trifluoro-2-hydroxypropanamide]

- IC50 ([1]; Table A2): < 100 nM
- IC50 ([2]; Table A2): < 100 nM
Compound: Cc1ccc(C(O)(C(N)=O)C(F)(F)F)cc1-c1cnc(N)c(C#Cc2ccc(C#N)cc2)n1 (centres unmarked) [Example 58, 2-(3-(5-amino-6-((4-cyanophenyl)ethynyl)pyrazin-2-yl)-4-methylphenyl)-3,3,3-trifluoro-2-hydroxypropanamide]

- IC50 ([1]; Table A2): < 100 nM
- IC50 ([2]; Table A2): < 100 nM
Compound: Cc1ccc(C(O)(C(N)=O)C(F)(F)F)cc1-c1cnc(N)c(C#CC2(O)CCN(C)C2=O)n1 (centres unmarked) [Example 65, 2-(3-(5-amino-6-((3-hydroxy-1-methyl-2-oxopyrrolidin-3-yl)ethynyl)pyrazin-2-yl)-4-methylphenyl)-3,3,3-trifluoro-2-]

- IC50 ([1]; Table A4): 100 to 500 nM
- IC50 ([2]; Table A4): < 100 nM
Compound: Cc1ccc(C(O)(C(N)=O)C(F)(F)F)cc1-c1cnc(N)c(N2CCN(c3ccccc3)CC2)n1 (centres unmarked) [Example 116, 2-(3-(5-amino-6-(4-phenylpiperazin-1-yl)pyrazin-2-yl)-4-methylphenyl)-3,3,3-trifluoro-2-hydroxypropanamide trifluoroacetate]

- IC50 ([1]; Table A1): < 100 nM
- IC50 ([2]; Table A1): < 100 nM
Compound: Cc1ccc(C(O)(C(N)=O)C(F)(F)F)cc1-c1cnc(N)c(C(=O)NCC(F)(F)F)n1 (centres unmarked) [Example 38, 3-Amino-6-(5-(3-amino-1,1,1-trifluoro-2-hydroxy-3-oxopropan-2-yl)-2-methylphenyl)-N-(2,2,2-trifluoroethyl)pyrazine-2-carboxamide trifluoroacetate]

- IC50 ([1]; Table A1): < 100 nM
- IC50 ([2]; Table A1): < 100 nM
Compound: Cc1ccc(C(O)(C(N)=O)C(F)F)cc1-c1cnc(N)c(C(=O)NC2CCOCC2)n1 (centres unmarked) [Example 36, 3-amino-6-(5-(1-amino-3,3-difluoro-2-hydroxy-1-oxopropan-2-yl)-2-methylphenyl)-N-(tetrahydro-2H-pyran-4-yl)pyrazine-2-carboxamide]

- IC50 ([1]; Table A3): < 100 nM
- IC50 ([2]; Table A3): < 100 nM
Compound: Cc1ccc(C(O)(C(N)=O)C(F)(F)F)cc1-c1cnc(N)c(C(=O)Nc2ccnn2C)n1 (centres unmarked) [Example 106, 3-amino-6-(5-(3-amino-1,1,1-trifluoro-2-hydroxy-3-oxopropan-2-yl)-2-methylphenyl)-N-(1-methyl-1H-pyrazol-5-yl)pyrazine-2-carboxamide trifluoroacetate]

- IC50 ([1]; Table A1): < 100 nM
- IC50 ([2]; Table A1): < 100 nM
Compound: Cc1ccc(C(O)(C(N)=O)C(F)(F)F)cc1-c1cnc(N)c(C(=O)N[C@@H](C)CO)n1 (stereo partly drawn) [Example 12, 3-amino-6-(5-(3-amino-1,1,1-trifluoro-2-hydroxy-3-oxopropan-2-yl)-2-methylphenyl)-N-((S)-1-hydroxypropan-2-yl)pyrazine-2-carboxamide]

- IC50 ([1]; Table A1): 100 to 500 nM
- IC50 ([2]; Table A1): < 100 nM
Compound: Cc1ccc(C(O)(C(N)=O)C(F)(F)F)cc1-c1cnc(N)c(C(=O)N2CCc3cccnc32)n1 (centres unmarked) [Example 28, 2-(3-(5-amino-6-(2,3-dihydro-1H-pyrrolo[2,3-b]pyridine-1-carbonyl)pyrazin-2-yl)-4-methylphenyl)-3,3,3-trifluoro-2-hydroxypropanamide]

- IC50 ([1]; Table A1): < 100 nM
- IC50 ([2]; Table A1): < 100 nM
Compound: COC(C)(C)CNC(=O)c1nc(-c2cc(C(O)(C(N)=O)C(F)(F)F)ccc2C)cnc1N (centres unmarked) [Example 21, 3-amino-6-(5-(3-amino-1,1,1-trifluoro-2-hydroxy-3-oxopropan-2-yl)-2-methylphenyl)-N-(2-methoxy-2-methylpropyl)pyrazine-2-carboxamide trifluoroacetate]

- IC50 ([1]; Table A3): < 100 nM
- IC50 ([2]; Table A3): < 100 nM
Compound: CC(=O)NCC(O)(c1ccc(C)c(-c2cnc(N)c(-c3cnn(CC(F)(F)F)c3)n2)c1)C(F)(F)F (centres unmarked) [Example 104, N-(2-(3-(5-amino-6-(1-(2,2,2-trifluoroethyl)-1H-pyrazol-4-yl)pyrazin-2-yl)-4-methylphenyl)-3,3,3-trifluoro-2-hydroxypropyl)acetamide trifluoroacetate]
